According to paper PMC10487733, “Synthesis, Conformational Analysis and Antitumor Activity of the Naturally Occurring Antimicrobial Medium-Length Peptaibol Pentadecaibin and Spin-Labeled Analogs Thereof” (International Journal of Molecular Sciences, 2023):
Where a SMILES comes first, the peptide text is derived from it. [ ]: non-standard residue; d: D form. TOAC = CC1(C)CC(N)(C(=O)O)CC(C)(C)N1[O]; Phe(ol) = N[C@H](CO)Cc1ccccc1; Aib = CC(C)(N)C(=O)O

Legend:
[1] = Circular dichroism in SDS micelles (helix aggregation index); type: physicochemical; settings: CD in 100 mM aqueous SDS micelles, 25 °C, 1 mm cell, 16 scans; ratio is ≈ 0.9 in CH3OH
Protocol: We performed a CD analysis of the peptides in methanol and in the presence of micelles of sodium dodecyl sulfate (SDS) 100 mM in water.
CD spectra of α-helical peptides feature two negative and one positive maxima centered at about 208, 222 and 195 nm, respectively. Aib-containing peptides are known to fold in 3_10-helices, which is common for peptaibols. In this case, the first negative maximum shifts from 208 to about 205 nm.
CD measurements were acquired on a Jasco J-1500 spectrophotometer (Tokyo, Japan), using a 1 mm pathlength quartz cell (Hellma Analytics, Munich, Germany). Methanol or a solution of sodium dodecyl sulfate (SDS) 100 mM in milliQ water was used as solvent. An amount of 1 mM of solutions of the three peptides in each of the two solvents of choice was prepared. Then, 300 µL of each solution was inserted in the 1 mm quartz cell and the cell put into the cell holder of the Jasco J-1500 instrument. The measurements were performed at 25 °C, acquiring 16 scans. The temperature was kept constant by means of an external Peltier thermostat (ThermoHaake C25P, Karlbruhe, Germany).

[2] = tested on: SK-OV-3 (human ovarian adenocarcinoma); settings: SK-OV-3 cells, 24 h exposure to 0–20 µM peptaibol, MTS read-out at 490 nm; value [95% CI]; at least three independent experiments in triplicate
[3] = tested on: A549 (human lung adenocarcinoma); settings: A549 cells, 24 h exposure to 0–20 µM peptaibol, MTS read-out at 490 nm; value [95% CI]; at least three independent experiments in triplicate
[4] = tested on: MUG-Mel2 (human melanoma); settings: MUG-Mel2 cells, 24 h exposure to 0–20 µM peptaibol, MTS read-out at 490 nm; CI not given; at least three independent experiments in triplicate
[5] = tested on: MDA-MB-231 (human triple-negative breast cancer); settings: MDA-MB-231 cells, 24 h exposure to 0–20 µM peptaibol, MTS read-out at 490 nm; value [95% CI]; at least three independent experiments in triplicate
[6] = Peptide-induced carboxyfluorescein leakage from PE/PG liposomes; settings: PE/PG 7:3 SUVs 0.06 mM, HEPES pH 7.4, 20 min incubation, fluorescence 488/520 nm, relative to Triton X-100; qualitative; more efficient than trichogin GA IV, particularly on these SUVs
Protocol: (§1) The assay was carried out on model liposomes (small unilamellar vesicles, SUV) of two different compositions, namely phosphatidylcholine/cholesterol (PC/Ch) 7:3 and phosphatidylethanolamine/phosphatidylglycerol (PE/PG) 7:3. Using fluorescence measurements, the ability of the peptides to induce the release of the carboxyfluorescein (CF) dye previously included within SUVs was evaluated.
(§2) The chosen lipid compositions result in different net surface charges on the SUVs. […] On the other hand, when the peptide perturbs the artificial membrane, it causes the leakage of the CF, and therefore leads to an increase in fluorescence intensity. The maximum value of fluorescence intensity, corresponding to the complete destruction of the vesicles via the surfactant Triton X-100, was used as a reference. […]
(§3) Phosphatidylcholine (PC), phosphatidylglycerol (PG), phosphatidylethanolamine (PE) and cholesterol (Ch) were purchased from Avanti Polar Lipids (Alabaster, AL, USA). […] To evaluate the peptide ability to modulate membrane permeability, CF leakage from the liposomes was measured via fluorescence spectroscopy on a Perkin Elmer (Waltham, MA, USA) MPF-66 spectrofluorimeter. The procedure was as follows: 2.5 mL of each SUV at 0.06 mM concentration was inserted in twelve disposable fluorescence cuvettes and fluorescence was recorded (λexc = 488 nm) for all of them at 520 nm (F0). […]

[7] = Peptide-induced carboxyfluorescein leakage from PC/Ch liposomes; settings: PC/Ch 7:3 SUVs 0.06 mM, HEPES pH 7.4, 20 min incubation, fluorescence 488/520 nm, relative to Triton X-100; qualitative; more efficient than trichogin GA IV
Protocol: as §1, §2, §3

CC(=O)NC1(C(=O)NCC(=O)N[C@@H](C)C(=O)N[C@@H](CC(C)C)C(=O)NC(C)(C)C(=O)N[C@@H](CCC(N)=O)C(=O)NC(C)(C)C(=O)N[C@H](C(=O)NC(C)(C)C(=O)N[C@@H](C)C(=O)NC(C)(C)C(=O)NC(C)(C)C(=O)NC(C)(C)C(=O)N[C@@H](CCC(N)=O)C(=O)N[C@H](CO)Cc2ccccc2)C(C)C)CC(C)(C)N([O])C(C)(C)C1 [To1-VX, [Toac^1]-pentadecaibin] (Ac-[TOAC]GAL[Aib]Q[Aib]V[Aib]A[Aib][Aib][Aib]Q[Phe(ol)])
ratio R = [θ]222/[θ]208 (index of aggregation between helices) [1]: greater than 1 | IC50 [2]: 9.56 µM | IC50 [3]: 11.1 µM | IC50 [4]: 10.1 µM | IC50 [5]: 7.98 µM

CC(=O)NC(C)(C)C(=O)NCC(=O)N[C@@H](C)C(=O)N[C@@H](CC(C)C)C(=O)NC(C)(C)C(=O)N[C@@H](CCC(N)=O)C(=O)NC(C)(C)C(=O)N[C@H](C(=O)NC(C)(C)C(=O)N[C@@H](C)C(=O)NC(C)(C)C(=O)NC(C)(C)C(=O)NC(C)(C)C(=O)N[C@@H](CCC(N)=O)C(=O)N[C@H](CO)Cc1ccccc1)C(C)C [VX, pentadecaibin] (Ac-[Aib]GAL[Aib]Q[Aib]V[Aib]A[Aib][Aib][Aib]Q[Phe(ol)])
ratio R = [θ]222/[θ]208 (index of aggregation between helices) [1]: greater than 1 | IC50 [2]: 11.1 µM | IC50 [3]: 9.1 µM | membrane activity (CF leakage from SUVs) [6]: equally membrane active | IC50 [4]: 14.2 µM | IC50 [5]: 8.79 µM | membrane activity (CF leakage from SUVs) [7]: equally membrane active

CC(=O)NC(C)(C)C(=O)NCC(=O)N[C@@H](C)C(=O)N[C@@H](CC(C)C)C(=O)NC(C)(C)C(=O)N[C@@H](CCC(N)=O)C(=O)NC(C)(C)C(=O)N[C@H](C(=O)NC(C)(C)C(=O)N[C@@H](C)C(=O)NC1(C(=O)NC(C)(C)C(=O)NC(C)(C)C(=O)N[C@@H](CCC(N)=O)C(=O)N[C@H](CO)Cc2ccccc2)CC(C)(C)N([O])C(C)(C)C1)C(C)C [To11-VX, [Toac^11]-pentadecaibin] (Ac-[Aib]GAL[Aib]Q[Aib]V[Aib]A[TOAC][Aib][Aib]Q[Phe(ol)])
ratio R = [θ]222/[θ]208 (index of aggregation between helices) [1]: greater than 1 | IC50 [3]: 9.7 µM | IC50 [4]: 13.6 µM | IC50 [5]: 8.04 µM
